Experimental data: patent US8071768B2, “Alkylquinoline and alkylquinazoline kinase modulators” (Janssen Pharmaceutica, N.V., priority 2005, dated 2011)

Key:
[1] = target: T1, isolated kinase domain of the human c-kit receptor (Homo sapiens, UniProt P10721); assay: c-Kit Fluorescence Polarization Kinase Assay; type: biochemical; conditions: uncertainty ±10%; read-out: ckit IC50
T1 construct: isolated kinase domain of the human c-kit receptor; purchased ProQinase lot SP005
Protocol: c-Kit Fluorescence Polarization Kinase Assay
The compounds of the present invention are also specific inhibitors of c-Kit. Selection of preferred compounds of Formula I for use as c-Kit inhibitors was performed in the following manner using an in vitro kinase assay to measure inhibition of the isolated kinase domain of the human c-kit receptor in a fluorescence polarization (FP) protocol. The c-kit assay utilized the fluorescein-labeled phosphopeptide and the anti-phosphotyrosine antibody included in the Panvera Phospho-Tyrosine Kinase Kit (Green) supplied by Invitrogen. When c-kit phosphorylated the poly Glu4Tyr, the fluorescein-labeled phosphopeptide was displaced from the anti-phosphotyrosine antibody by the phosphorylated poly Glu4Tyr, thus decreasing the FP value. The c-kit kinase reaction was incubated at room temperature for 45 minutes under the following conditions: 1 nM c-kit (ProQinase, lot SP005), 100 ug/mL poly Glu4Tyr, 50 uM ATP, 5 mM MgCl2, 1 mM DTT, 0.01% Tween-20, 1% DMSO or compound in […], pH 7.5. The kinase reaction was stopped with the addition of EDTA. The fluorescein-labeled phosphopeptide and the anti-phosphotyrosine antibody were added and incubated for 30 minutes at room temperature and fluorescence polarization was read. Data points were an average of triplicate samples. Inhibition and IC50 data analysis were done with GraphPad Prism using a non-linear regression fit with a multiparamater, sigmoidal dose-response (variable slope) equation.

TrkB = target: T2, TrkB (Homo sapiens, UniProt Q16620); assay: Trk B Fluorescence Polarization Kinase Assay; type: biochemical; conditions: uncertainty ±10%
T2 construct: purchased Upstate 14-507M
T2 sequence (Q16620 32-822): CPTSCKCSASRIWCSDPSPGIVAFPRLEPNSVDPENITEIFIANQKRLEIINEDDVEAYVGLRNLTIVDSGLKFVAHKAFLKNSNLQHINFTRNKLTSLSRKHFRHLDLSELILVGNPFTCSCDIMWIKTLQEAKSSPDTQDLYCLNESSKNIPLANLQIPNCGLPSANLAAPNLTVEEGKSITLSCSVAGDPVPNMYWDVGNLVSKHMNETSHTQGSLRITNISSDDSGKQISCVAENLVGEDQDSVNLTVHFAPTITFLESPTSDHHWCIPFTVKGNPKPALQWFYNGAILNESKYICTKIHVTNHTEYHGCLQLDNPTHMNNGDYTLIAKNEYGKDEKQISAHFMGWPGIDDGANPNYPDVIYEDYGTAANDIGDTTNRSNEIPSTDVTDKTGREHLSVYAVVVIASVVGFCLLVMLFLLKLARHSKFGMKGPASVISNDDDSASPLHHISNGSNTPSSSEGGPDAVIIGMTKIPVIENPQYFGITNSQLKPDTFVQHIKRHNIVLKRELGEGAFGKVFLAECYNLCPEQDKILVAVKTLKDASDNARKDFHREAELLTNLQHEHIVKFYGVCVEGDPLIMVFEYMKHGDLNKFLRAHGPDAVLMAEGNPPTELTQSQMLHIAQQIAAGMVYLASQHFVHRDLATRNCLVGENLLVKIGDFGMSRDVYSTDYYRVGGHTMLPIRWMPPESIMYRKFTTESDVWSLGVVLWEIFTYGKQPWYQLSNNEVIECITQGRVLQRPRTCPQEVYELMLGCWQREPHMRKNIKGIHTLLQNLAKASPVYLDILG
Outline: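 The TrkB kinase reaction (50 nM enzyme, 20 ug/mL poly Glu4Tyr, 150 uM ATP, 5 mM MgCl2, 1% DMSO) ran 30 minutes at room temperature and was stopped with EDTA. Phosphorylation was detected by fluorescence-polarization displacement of a fluorescein phosphopeptide from an anti-phosphotyrosine antibody. IC50 came from a variable-slope sigmoidal fit of triplicates.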

MV4-11 cells = assay: Inhibition of MV4-11 cell proliferation (CellTiterGlo); type: cell-based; conditions: Homo sapiens; 72 hours growth; uncertainty ±20%
Protocol: Inhibition of MV4-11 and Baf3 Cell Proliferation
To assess the cellular potency of the compounds of the present invention, FLT3 specific growth inhibition was measured in the leukemic cell line MV4-11 (ATCC Number: CRL-9591). MV4-11 cells are derived from a patient with childhood acute myelomonocytic leukemia with an 11q23 translocation resulting in a MLL gene rearrangement and containing an FLT3-ITD mutation (AML subtype M4)(1,2). MV4-11 cells cannot grow and survive without active FLT3ITD.
To measure proliferation inhibition by test compounds, the luciferase based CellTiterGlo reagent (Promega), which quantifies total cell number based on total cellular ATP concentration, was used. […]
Compound dilutions or 0.1% DMSO (vehicle control) are added to cells and the cells are allowed to grow for 72 hours at standard cell growth conditions (37° C., 5% CO2). […] To measure total cell growth an equal volume of CellTiterGlo reagent was added to each well, according to the manufacturer's instructions, and luminescence was quantified. Total cell growth was quantified as the difference in luminescent counts (relative light units, RLU) of cell number at Day 0 compared to total cell number at Day 3 (72 hours of growth and/or compound treatment). One hundred percent inhibition of growth is defined as an RLU equivalent to the Day 0 reading. […]

T1 sequence (P10721 589-937 limits assumed): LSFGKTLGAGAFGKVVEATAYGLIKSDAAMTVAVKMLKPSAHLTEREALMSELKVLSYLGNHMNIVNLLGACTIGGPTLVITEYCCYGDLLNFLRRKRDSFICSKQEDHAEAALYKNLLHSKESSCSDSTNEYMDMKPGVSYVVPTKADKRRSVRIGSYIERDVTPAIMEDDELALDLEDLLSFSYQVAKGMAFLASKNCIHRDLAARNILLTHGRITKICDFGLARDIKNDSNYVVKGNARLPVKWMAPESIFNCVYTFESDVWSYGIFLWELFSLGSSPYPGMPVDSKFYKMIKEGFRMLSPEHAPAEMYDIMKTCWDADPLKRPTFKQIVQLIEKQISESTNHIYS

IC50 [1]: 14 nM
IC50 (TrkB): 600 nM
IC50 (MV4-11 cells): 14 nM
Structure (SMILES): CC(C)Oc1ccc(NC(=O)N2CCC(c3ncnc4cc(OCCCN5CCN(C)CC5)ccc34)CC2)cc1 [Compound 39]
